Where a name gives a salt, the structure may show the parent alone.
Biological target: T1, Human Polθ polymerase domain (aa1820-2590) (Homo sapiens, UniProt O75417)
T1 construct: Human Polθ polymerase domain (aa1820-2590) was expressed in E. Coli; made in house; host or cells: E. coli
T1 sequence (O75417 1820-2590): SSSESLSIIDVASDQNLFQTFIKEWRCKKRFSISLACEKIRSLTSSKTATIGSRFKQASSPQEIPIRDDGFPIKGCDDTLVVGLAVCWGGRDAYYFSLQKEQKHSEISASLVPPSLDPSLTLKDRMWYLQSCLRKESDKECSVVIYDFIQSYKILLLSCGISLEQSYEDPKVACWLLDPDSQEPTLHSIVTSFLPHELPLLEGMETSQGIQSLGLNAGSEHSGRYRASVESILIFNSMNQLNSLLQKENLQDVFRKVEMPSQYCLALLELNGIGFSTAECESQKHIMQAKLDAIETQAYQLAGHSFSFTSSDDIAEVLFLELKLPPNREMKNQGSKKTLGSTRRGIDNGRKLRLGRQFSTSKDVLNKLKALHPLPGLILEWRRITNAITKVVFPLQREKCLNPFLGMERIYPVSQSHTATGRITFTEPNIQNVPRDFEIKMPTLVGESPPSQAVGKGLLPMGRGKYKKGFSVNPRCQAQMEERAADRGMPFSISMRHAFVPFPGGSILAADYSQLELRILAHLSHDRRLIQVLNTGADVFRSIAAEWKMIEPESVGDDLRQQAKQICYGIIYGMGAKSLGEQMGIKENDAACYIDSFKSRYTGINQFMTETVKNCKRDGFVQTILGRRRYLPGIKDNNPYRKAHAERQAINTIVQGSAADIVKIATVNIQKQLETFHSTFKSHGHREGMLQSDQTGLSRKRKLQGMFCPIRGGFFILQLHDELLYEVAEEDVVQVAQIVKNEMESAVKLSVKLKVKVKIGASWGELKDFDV
Test: Polθ Polymerase Domain WT KI Assay (PicoGreen)
Type: biochemical
Conditions: 100 nM DNA substrate, 0.156 nM Polθ, initial rates vs inhibitor concentration
Procedure, shortened: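 E. coli-expressed human Polθ polymerase domain (aa1820-2590) on annealed DNA II Short/Long primer-template (1.2:1), in 25 mM Tris pH 7.5, NaCl, 5% glycerol, 0.01% Triton X-100, 0.1 mg/ml BSA, 1 mM DTT, 1% DMSO. EDTA-quenched timepoints to 180 min, PicoGreen fluorescence. Initial rates vs inhibitor concentration fitted four-parameter for KI.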

SMILES	Ki
Cc1cc(C(F)(F)F)cc(N2C(=O)C[C@@H]3CN(Cc4cn5c(n4)[C@H](C)N(C)CC5)c4c(Cl)cccc4N(C)C(=O)[C@H]32)n1 (racemic) [Example 96b, (3aR,11aS)-6-Chloro-5-(((S/R)-7,8-dimethyl-5,6,7,8-tetrahydroimidazo[1,2-a]pyrazin-2-yl)methyl)-10-methyl-1-(6-methyl-4-(trifluoromethyl)pyridin-2-yl)-1,3a,4,5,10,11a-hexahydro-2H-benzo[b]pyrrolo[2,3-f][1,4]diazocine-2,11(3H)-dione]	1.66 nM
Cc1cc(C(F)(F)F)cc(N2C(=O)C[C@@H]3CN(CCN4CCN(C)C[C@@H]4C)c4c(C)cccc4N(C)C(=O)[C@H]32)n1 [Example 49, (3aR,11aS)-5-(2-((S)-2,4-Dimethylpiperazin-1-yl)ethyl)-6,10-dimethyl-1-(6-methyl-4-(trifluoromethyl)pyridin-2-yl)-1,3a,4,5,10,11a-hexahydro-2H-benzo[b]pyrrolo[2,3-f][1,4]diazocine-2,11(3H)-dione dihydrochloride]	0.457 nM
Cc1cc(C(F)(F)F)cc(N2C(=O)C[C@@H]3CN(CCN4CC[C@H](N(C)C)[C@H](F)C4)c4c(Cl)cccc4N(C)C(=O)[C@H]32)n1 [Example 35, (3aR,11aS)-6-Chloro-5-(2-((3R,4S)-4-(dimethylamino)-3-fluoropiperidin-1-yl)ethyl)-10-methyl-1-(6-methyl-4-(trifluoromethyl)pyridin-2-yl)-1,3a,4,5,10,11a-hexahydro-2H-benzo[b]pyrrolo[2,3-f][1,4]diazocine-2,11(3H)-dione hydrochloride]	1.09 nM
COc1ccnc(N2C[C@H]3CC(=O)N(c4cc(C(F)(F)F)cc(C)n4)[C@@H]3C(=O)N(C)c3cccc(F)c32)c1 [Example 140, (3aR,11aS)-6-Fluoro-5-(4-methoxypyridin-2-yl)-10-methyl-1-(6-methyl-4-(trifluoromethyl)pyridin-2-yl)-1,3a,4,5,10,11a-hexahydro-2H-benzo[b]pyrrolo[2,3-f][1,4]diazocine-2,11(3H)-dione]	79.6 nM
Cc1cc(C(F)(F)F)cc(N2C(=O)C[C@@H]3CN(Cc4cn5c(n4)CNCC5)c4c(C)cccc4N(C)C(=O)[C@H]32)n1 [Example 80, (3aR,11aS)-6,10-Dimethyl-1-(6-methyl-4-(trifluoromethyl)pyridin-2-yl)-5-((5,6,7,8-tetrahydroimidazo[1,2-a]pyrazin-2-yl)methyl)-1,3a,4,5,10,11a-hexahydro-2H-benzo[b]pyrrolo[2,3-f][1,4]diazocine-2,11(3H)-dione]	0.186 nM
Cc1cc(C(F)(F)F)cc(N2C(=O)C[C@@H]3CN(Cc4cc5n(n4)CCN(C)C5)c4c(C)cccc4N(C)C(=O)[C@H]32)n1 [Example 113, (3aR,11aS)-6,10-Dimethyl-5-((5-methyl-4,5,6,7-tetrahydropyrazolo[1,5-a]pyrazin-2-yl)methyl)-1-(6-methyl-4-(trifluoromethyl)pyridin-2-yl)-1,3a,4,5,10,11a-hexahydro-2H-benzo[b]pyrrolo[2,3-f][1,4]diazocine-2,11(3H)-dione]	0.237 nM
Cc1cc(C(F)(F)F)cc(N2C(=O)C[C@@H]3CN(CCN4CCOC[C@H]4C)c4c(Cl)cccc4N(C)C(=O)[C@H]32)n1 [Example 24, (3aR,11aS)-6-Chloro-10-methyl-1-(6-methyl-4-(trifluoromethyl)pyridin-2-yl)-5-(2-((R)-3-methylmorpholino)ethyl)-1,3a,4,5,10,11a-hexahydro-2H-benzo[b]pyrrolo[2,3-f][1,4]diazocine-2,11(3H)-dione]	1.78 nM
Cc1cc(C(F)(F)F)cc(N2C(=O)C[C@@H]3CN(Cc4nnc5n4CCNC5)c4c(Cl)cccc4N(C)C(=O)[C@H]32)n1 [Example 101, (3aR,11aS)-6-Chloro-10-methyl-1-(6-methyl-4-(trifluoromethyl)pyridin-2-yl)-5-((5,6,7,8-tetrahydro-[1,2,4]triazolo[4,3-a]pyrazin-3-yl)methyl)-1,3a,4,5,10,11a-hexahydro-2H-benzo[b]pyrrolo[2,3-f][1,4]diazocine-2,11(3H)-dione hydrochloride]	3.73 nM
Cc1cc(C(F)(F)F)cc(N2C(=O)C[C@@H]3CN(C[C@@H]4CCN(C)[C@@H](C)C4)c4c(Cl)cccc4N(C)C(=O)[C@H]32)n1 (single isomer, unassigned) [Example 126d]	1.48 nM
Cc1cc(C(F)(F)F)cc(N2C(=O)C[C@@H]3CN(CCN4CCN(CCF)CC4)c4c(Cl)cccc4N(C)C(=O)[C@H]32)n1 [Example 26, (3aR,11aS)-6-Chloro-5-(2-(4-(2-fluoroethyl)piperazin-1-yl)ethyl)-10-methyl-1-(6-methyl-4-(trifluoromethyl)pyridin-2-yl)-1,3a,4,5,10,11a-hexahydro-2H-benzo[b]pyrrolo[2,3-f][1,4]diazocine-2,11(3H)-dione]	2.72 nM
Cc1cc(C(F)(F)F)cc(N2C(=O)C[C@@H]3CN(CCN4CCN(C)CC4)c4c(Cl)cccc4N(C)C(=O)[C@H]32)n1 [Example 7, (3aR,11aS)-6-Chloro-10-methyl-1-(6-methyl-4-(trifluoromethyl)pyridin-2-yl)-5-(2-(4-methylpiperazin-1-yl)ethyl)-1,3a,4,5,10,11a-hexahydro-2H-benzo[b]pyrrolo[2,3-f][1,4]diazocine-2,11(3H)-dione]	2 nM
Cc1cc(C(F)(F)F)cc(N2C(=O)C[C@@H]3CN(C[C@@H](O)CN4CCOCC4)c4c(Cl)cccc4N(C)C(=O)[C@H]32)n1 (racemic) [Example 133a, (3aR,11aS)-6-chloro-5-((S/R)-2-hydroxy-3-morpholinopropyl)-10-methyl-1-(6-methyl-4-(trifluoromethyl)pyridin-2-yl)-1,3a,4,5,10,11a-hexahydro-2H-benzo[b]pyrrolo[2,3-f][1,4]diazocine-2,11(3H)-dione]	1.47 nM
Cc1cc(C(F)(F)F)cc(N2C(=O)C[C@@H]3CN(CCN4CCOCC4)c4c(C)cccc4N(C)C(=O)[C@H]32)n1 [Example 44, (3aR,11aS)-6,10-Dimethyl-1-(6-methyl-4-(trifluoromethyl)pyridin-2-yl)-5-(2-morpholinoethyl)-1,3a,4,5,10,11a-hexahydro-2H-benzo[b]pyrrolo[2,3-f][1,4]diazocine-2,11(3H)-dione]	0.349 nM
Cc1cc(C(F)(F)F)cc(N2C(=O)C[C@@H]3CN(CCN4CCN(C)[C@@H](C)C4)c4c(Cl)cccc4N(C)C(=O)[C@H]32)n1 [Example 30, (3aR,11aS)-6-Chloro-5-(2-((S)-3,4-dimethylpiperazin-1-yl)ethyl)-10-methyl-1-(6-methyl-4-(trifluoromethyl)pyridin-2-yl)-1,3a,4,5,10,11a-hexahydro-2H-benzo[b]pyrrolo[2,3-f][1,4]diazocine-2,11(3H)-dione]	0.381 nM
Cc1cc(C(F)(F)F)cc(N2C(=O)C[C@@H]3CN(Cc4cccnc4)c4c(Cl)cccc4N(C)C(=O)[C@H]32)n1 [Example 95, (3aR,11aS)-6-Chloro-10-methyl-1-(6-methyl-4-(trifluoromethyl)pyridin-2-yl)-5-(pyridin-3-ylmethyl)-1,3a,4,5,10,11a-hexahydro-2H-benzo[b]pyrrolo[2,3-f][1,4]diazocine-2,11(3H)-dione]	3.7 nM
Cc1cc(C(F)(F)F)cc(N2C(=O)C[C@@H]3CN(CCN4CC[C@H](N(C)C)[C@H](F)C4)c4c(C)cccc4N(C)C(=O)[C@H]32)n1 [Example 66, (3aR,11aS)-5-(2-((3R,4S)-4-(Dimethylamino)-3-fluoropiperidin-1-yl)ethyl)-6,10-dimethyl-1-(6-methyl-4-(trifluoromethyl)pyridin-2-yl)-1,3a,4,5,10,11a-hexahydro-2H-benzo[b]pyrrolo[2,3-f][1,4]diazocine-2,11(3H)-dione dihydrochloride]	0.936 nM
CC(=O)N1CCN(CCN2C[C@H]3CC(=O)N(c4cc(C(F)(F)F)cc(C)n4)[C@@H]3C(=O)N(C)c3cccc(Cl)c32)[C@@H](C)C1 [Example 11, (3aR,11aS)-5-(2-((S)-4-Acetyl-2-methylpiperazin-1-yl)ethyl)-6-chloro-10-methyl-1-(6-methyl-4-(trifluoromethyl)pyridin-2-yl)-1,3a,4,5,10,11a-hexahydro-2H-benzo[b]pyrrolo[2,3-f][1,4]diazocine-2,11(3H)-dione]	1.52 nM
Cc1cc(C(F)(F)F)cc(N2C(=O)C[C@@H]3CN(CC4CCCN4C)c4c(Cl)cccc4N(C)C(=O)[C@H]32)n1 (single isomer, unassigned) [Example 118a]	8.5 nM
Cc1cc(C(F)(F)F)cc(N2C(=O)C[C@@H]3CN(Cc4cccnc4)c4c(C)cccc4N(C)C(=O)[C@H]32)n1 [Example 115, (3aR,11aS)-6,10-Dimethyl-1-(6-methyl-4-(trifluoromethyl)pyridin-2-yl)-5-(pyridin-3-ylmethyl)-1,3a,4,5,10,11a-hexahydro-2H-benzo[b]pyrrolo[2,3-f][1,4]diazocine-2,11(3H)-dione]	1.08 nM

— US20260124214A1, “HETEROCYCLIC COMPOUNDS FOR USE IN THE TREATMENT OF CANCER” (ARTIOS PHARMA LIMITED, priority 2021, published 2026)
